# Read-outs that look alike come from different tables or passages of the source.
# Experiments:
# Assay type in all cases: cell-based
# HeLa MKYP cells [1] = assay: Cell death measured by DAPI staining, with 1 μM FCCP/oligomycin or no toxin (no FO)
# Procedure, shortened: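 Cell death was read by DAPI staining after 6–6.5 h compound exposure in HeLa MKYP cells, either with 1 μM FCCP/oligomycin or without toxin. H2O2 served as the cell-death control.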
# [2] = Mitotoxicity / Mitotox safety margin (therapeutic window)
# HeLa MKYP cells [3] = assay: Human mitophagy assay (HeLa mKeima assay, FACS); settings: read-out: Mitophagy induction EC50
# Procedure, shortened: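 Mitophagy, read by FACS as the share of cells showing the lysosomal mtKeima emission shift, followed 6 h of 1 uM FCCP/oligomycin stimulation. Before that, HeLa MKYP cells spent 16 h with compound over a concentration range.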
Compound,Highest safe dose (cytotoxicity; no FO; safe means DAPI+ <20%) (HeLa MKYP cells [1]) [µM],Max % death with 1 μM FO (HeLa MKYP cells [1]) [%],Mito-Safety Index (highest safe dose/EC50) [2],Highest safe dose (μM) (mitotox or cytotox) [2] [µM],EC50 (HeLa MKYP cells [3]) [µM],"EC50 (HeLa MKYP cells [3]; Homo sapiens, HeLa) [µM]",mitotoxicity ([2]; FIG. 5-7)
"[2H]C([2H])([2H])OC1CN([C@H]2COc3ccccc3[C@@H]2Nc2ncnc3[nH]c(C(F)(F)F)cc23)C1 (single isomer, unassigned) [EP-0041326]",25.0,7.5,56.49,19.8,0.35,–,–
COC1CN([C@@H]2COc3ccccc3[C@H]2Nc2ncnc3[nH]c(C4CC4)cc23)C1 [EP-0040848],25.0,10.6,152.94,25.0,–,0.16,–
COC1CN([C@H]2COc3ccccc3[C@@H]2Nc2ncnc3[nH]c(C(F)(F)F)cc23)C1 [EP-0040697],8.3,57.6,15.51,8.3,0.54,–,–
"C[C@@H]1CN([C@H]2CCc3ccccc3[C@@H]2Nc2ncnc3[nH]c(C(F)(F)F)cc23)C[C@H](C)O1 (single isomer, unassigned) [EP-0040493]",25.0,14.8,103.09,1.7,–,0.02,–
Fc1ccc2c(c1)CC[C@H](N1C[C@@H]3COC[C@H]3C1)[C@H]2Nc1ncnc2[nH]c(C3CC3)cc12 [EP-0040669],25.0,29.9,71.36,25.0,–,0.35,–
COC[C@H]1CCN([C@H]2COc3ccccc3[C@@H]2Nc2ncnc3[nH]c(C4CC4)cc23)C1 [EP-0041546],25.0,6.6,21.52,3.6,0.17,–,–
FC(F)(F)c1cc2c(NC3c4ccccc4OCC3N3C[C@H]4COC[C@@H]4C3)ncnc2[nH]1 (stereo partly drawn) [EP-0040678],25.0,9.2,28.90,25.0,–,0.86,–
C[C@@H]1CN([C@H]2COc3cc(F)ccc3[C@@H]2Nc2ncnc3[nH]c(C4CC4)cc23)C[C@H](C)O1 [EP-0040948],25.0,5.6,–,25.0,–,> 25,–
C[C@@H]1CN([C@H]2COc3cc(F)ccc3[C@@H]2Nc2ncnc3[nH]c(C4CC4)cc23)CCO1 [EP-0041122],16.7,16.9,37.43,2.0,–,0.05,–
"Oc1ccc2c(c1)CCC[C@H]2Nc1ncnc2[nH]c(C(F)(F)F)cc12 (single isomer, unassigned) [EP-0038508]",–,–,–,–,–,–,low mitotoxicity
"OC(C1CCOCC1)C1COc2ccccc2C1Nc1ncnc2[nH]c(C(F)(F)F)cc12 (single isomer, unassigned) [EP-0041269]",25.0,2.9,–,–,> 25,–,–
C[C@@H]1CN([C@H]2COc3ccccc3[C@@H]2Nc2ncnc3[nH]c(C(F)(F)F)cc23)CCO1 [EP-0040955],25.0,3.4,–,–,–,> 25,–
CS(=N)(=O)C1CN(C2COc3ccccc3C2Nc2ncnc3[nH]c(C(F)(F)F)cc23)C1 (stereo not drawn) [EP-0041496],25.0,3.4,–,–,–,> 25,–
"C[C@@H]1COCCN1[C@@H]1CCc2ccccc2[C@H]1Nc1ncnc2[nH]c(C(F)(F)F)cc12 (single isomer, unassigned) [EP-0040195]",25.0,12.0,–,–,–,18.5,–
FC(F)(F)c1cc2c(NC3c4ccccc4CCC3N3CCC4(CCOC4)CC3)ncnc2[nH]1 (stereo not drawn) [EP-0040589],25.0,19.4,–,–,–,> 25,–
"c1ccc2c(c1)OC[C@@H](N1CCOCC1)[C@@H]2Nc1ncnc2[nH]c(C3CC3)cc12 (single isomer, unassigned) [EP-0040181]",25.0,5.9,–,–,–,> 25,–
C[C@H]1CN([C@@H]2COc3cc(F)ccc3[C@H]2Nc2ncnc3[nH]c(C(F)(F)F)cc23)CCO1 [EP-0040982],25.0,6.1,–,–,–,7.62,–
[O-][S+]1CCN(C2CCc3ccccc3C2Nc2ncnc3[nH]c(C4CC4)cc23)CC1 (stereo not drawn) [EP-0040665],25.0,3.7,–,–,–,9.86,–

Compound,Highest safe dose (cytotoxicity; no FO; safe means DAPI+ <20%) (HeLa MKYP cells [1]) [µM],Max % death with 1 μM FO (HeLa MKYP cells [1]) [%],Mito-Safety Index (highest safe dose/EC50) [2],Highest safe dose (μM) (mitotox or cytotox) [2] [µM],EC50 (HeLa MKYP cells [3]) [µM],"EC50 (HeLa MKYP cells [3]; Homo sapiens, HeLa) [µM]",mitotoxicity ([2]; FIG. 5-7)
C[C@@H]1CN([C@@H]2COc3cc(F)ccc3[C@H]2Nc2ncnc3[nH]c(C4CC4)cc23)CCO1 [EP-0041123],25.0,7.3,–,–,–,11,–
"OC[C@H]1CN([C@H]2COc3ccccc3[C@@H]2Nc2ncnc3[nH]c(C(F)(F)F)cc23)CCO1 (single isomer, unassigned) [EP-0041558]",25.0,10.6,–,–,1.42,–,–
FC(F)(F)c1cc2c(N[C@H]3c4ccccc4CC[C@@H]3N3CCCOCC3)ncnc2[nH]1 [EP-0040139],25.0,8.5,–,–,–,3.66,–
"CN1CCN([C@H]2CCc3ccccc3[C@@H]2Nc2ncnc3[nH]c(C(F)(F)F)cc23)CC1 (single isomer, unassigned) [EP-0040578]",25.0,14.4,–,–,–,3.54,–
"OC[C@@H]1CN([C@H]2COc3ccccc3[C@@H]2Nc2ncnc3[nH]c(C(F)(F)F)cc23)CCO1 (single isomer, unassigned) [EP-0041586]",25.0,10.7,–,–,9.59,–,–
[2H]C([2H])([2H])OC1CN([C@@H]2COc3ccccc3[C@H]2Nc2ncnc3[nH]c(C(F)(F)F)cc23)C1 (racemic) [EP-0041327],25.0,4.1,–,–,–,> 25,–
"CN1CCN([C@@H]2CCc3ccccc3[C@H]2Nc2ncnc3[nH]c(C(F)(F)F)cc23)CC1 (single isomer, unassigned) [EP-0040579]",25.0,20.3,–,–,–,9.02,–
CO[C@@H]1CCN([C@@H]2COc3ccccc3[C@H]2Nc2ncnc3[nH]c(C(F)(F)F)cc23)C1 [EP-0041162],25.0,4.2,–,–,–,> 25,–
Fc1ccc2c(c1)OC[C@H](N1CCOCC1)[C@H]2Nc1ncnc2[nH]c(C3CC3)cc12 [EP-0040500],25.0,8.6,–,–,–,0.99,–
"C[C@@H]1COCCN1[C@H]1CCc2ccccc2[C@@H]1Nc1ncnc2[nH]c(C3CC3)cc12 (single isomer, unassigned) [EP-0040358]",2.8,97.8,–,–,> 25,–,–
Cc1ccc2c(c1)OC[C@H](N1CCOCC1)[C@H]2Nc1ncnc2[nH]c(C(F)(F)F)cc12 (racemic) [EP-0041045],25.0,7.7,–,–,–,1.56,–
COC[C@H]1CCN([C@H]2COc3ccccc3[C@@H]2Nc2ncnc3[nH]c(C4CC4)cc23)C1 [EP-0041547],25.0,8.2,–,–,7.29,–,–
"FC(F)(F)c1cc2c(N[C@H]3c4ccccc4OC[C@@H]3C3CCCOC3)ncnc2[nH]1 (single isomer, unassigned) [EP-0041002]",25.0,4.5,–,–,–,6.18,–
"c1ccc2c(c1)CC[C@@H](N1C[C@H]3COC[C@H]3C1)[C@@H]2Nc1ncnc2[nH]c(C3CC3)cc12 (single isomer, unassigned) [EP-0040249]",25.0,12.3,–,–,–,0.09,–
C[C@H]1CN([C@H]2COc3cc(F)ccc3[C@@H]2Nc2ncnc3[nH]c(C4CC4)cc23)CCO1 [EP-0041124],25.0,12.7,–,–,–,5.32,–
"FC(F)(F)c1cc2c(N[C@H]3c4ccccc4CC[C@@H]3OCC3CCOCC3)ncnc2[nH]1 (single isomer, unassigned) [EP-0038523]",25.0,3.3,–,–,–,4.45,–
"Fc1ccc2c(c1)OC[C@H](N1C[C@H]3COC[C@H]3C1)[C@H]2Nc1ncnc2[nH]c(C3CC3)cc12 (single isomer, unassigned) [EP-0040326]",25.0,3.6,–,–,> 25,–,–

# — patent US20240018146A1, “COMPOSITIONS AND METHODS OF USING THE SAME FOR TREATMENT OF NEURODEGENERATIVE AND MITOCHONDRIAL DISEASE” (MITOKININ, INC., priority 2020, published 2024)
